According to patent US10285979B2, “Breast cancer therapeutic agent containing 5′-hydroxy-5-nitro-indirubin-3′-oxime as active ingredient” (ANYGEN CO., LTD., priority 2016, dated 2019):
Read-outs that look alike come from different tables or passages of the source.

Key:
A498 = conditions: 10 μM; renal cell carcinoma cell line A498
Source text: (§1) If the growth percent is 0%, it means that no further growth of cancer cells occurs, which is an ideal case.

A549/ATCC = conditions: 10 μM; non-small cell lung cancer cell line A549/ATCC
Source text: as §1

CAKI-1 = conditions: 10 μM; renal cell carcinoma cell line CAKI-1
Source text: as §1

CCRE-CEM = conditions: 10 μM; leukemia cell line CCRE-CEM
Source text: as §1

COLO 205 = conditions: 10 μM; colorectal cancer cell line COLO 205
Source text: as §1

HCC-2998 = conditions: 10 μM; colorectal cancer cell line HCC-2998
Source text: as §1

LOX IMVI = conditions: 10 μM; malignant melanoma cell line LOX IMVI
Source text: as §1

NCI-H322M = conditions: 10 μM; non-small cell lung cancer cell line NCI-H322M
Source text: as §1

RPMI-8226 = conditions: 10 μM; leukemia cell line RPMI-8226
Source text: as §1

SF-268 = conditions: 10 μM; CNS cancer cell line SF-268
Source text: as §1

SK-MEL-28 = conditions: 10 μM; malignant melanoma cell line SK-MEL-28
Source text: as §1

SK-MEL-4 = conditions: 10 μM; malignant melanoma cell line SK-MEL-4
Source text: as §1

SK-OV-3 = conditions: 10 μM; ovarian cancer cell line SK-OV-3
Source text: as §1

SNB-75 = conditions: 10 μM; CNS cancer cell line SNB-75
Source text: as §1

SR = conditions: 10 μM; leukemia cell line SR
Source text: as §1

T-47D = conditions: 10 μM; breast cancer cell line T-47D
Source text: as §1

UACC-257 = conditions: 10 μM; malignant melanoma cell line UACC-257
Source text: as §1

[1] = Method: Chemical name (IUPAC) of AGM-130 is (2′Z 3′E)-5′-hydroxy-5-nitro indirubin oxime. […] For the practical formulation of injectable aqueous solution, AGM-130 in PEG300 solution is diluted with 0.1 N Na2CO3 in saline solution to 70% aqueous solution with final concentration of 3.75 mg/mL.
cancer cell = conditions: DAPI staining
Source text: Further, we have examined the apoptotic body stained with DAPI using a fluorescence microscope to investigate the induction of apoptosis by AGM-130.

[2] = test system: MCF-7 ER positive breast cancer cells
Source text: (§2) The tumor volume and shape in the nude mouse have been observed for 24 days.

[3] = test system: HCT-116 colorectal cancer cells; conditions: 10 mg/kg intraperitoneally every other day
Method: The tumor has been grown after injecting HCT-116 colorectal cancer cells (10×10^6 cells/0.1 ml of non-serum matrigel medium) to the nude mouse.
as §2

A549 lung cancer cells = test system: A549 lung cancer cells
Source text: The tumor has been grown after injecting A549 lung cancer cells to the nude mouse. […] The tumor growth has been observed for 27 days.
The tumor volume and shape in the nude mouse have been observed for 27 days.

HL-60(TB) = conditions: 10 μM; leukemia cell line HL-60(TB)
[4] = test system: Her2 positive breast cancer cell lines; conditions: 4 types of Her2 positive breast cancer cell lines
[5] = test system: ER positive breast cancer cell lines; conditions: 3 types of ER positive breast cancer cell lines
[6] = test system: Imatinib-resistant K562 cells; conditions: in vitro and in vivo systems; cited from earlier work
[7] = test system: transplanted A549 cell tumor; conditions: in vivo; cited from earlier work
[8] = test system: TAMR-MCF-7 tamoxifen resistant breast cancer cells; assay: TAMR-MCF-7 tamoxifen resistant breast cancer xenografted model, intraperitoneal

## O=C1Nc2ccc([N+](=O)[O-])cc2C1=C1Nc2ccc(O)cc2C1=NO [AGM-130, (2′Z 3′E)-5′-hydroxy-5-nitro indirubin oxime]
A498
  Growth percent: −24.52%
A549/ATCC
  Growth percent: 10.64%
CAKI-1
  Growth percent: −14.28%
CCRE-CEM
  Growth percent: 0.49%
COLO 205
  Growth percent: 65.80%
HCC-2998
  Growth percent: 8.93%
LOX IMVI
  Growth percent: −32.44%
NCI-H322M
  Growth percent: 7.21%
RPMI-8226
  Growth percent: −7.92%
SF-268
  Growth percent: 6.50%
SK-MEL-28
  Growth percent: −11.04%
SK-MEL-4
  Growth percent: −40.95%
SK-OV-3
  Growth percent: −9.52%
SNB-75
  Growth percent: −28.05%
SR
  Growth percent: 0.38%
T-47D
  Growth percent: 16.80%
UACC-257
  Growth percent: 9.29%
[1]; in DMF and DMSO
  solubility: soluble
[1]; in ethanol and acetone
  solubility: very difficult to dissolve
[1]; in water
  solubility: practically insoluble
Cancer cell
  induction of apoptosis: mitochondria-dependent apoptosis
[2]; 3 mg/kg intravenously
  tumor volume reduction compared to control group: about 49%
[2]; 3 mg/kg intravenously once a week, day 0
  volume of tumor: 131.9 ± 8.6
[2]; 3 mg/kg intravenously once a week, day 3
  volume of tumor: 167.5 ± 7.1
[2]; 3 mg/kg intravenously once a week, day 6
  volume of tumor: 182.3 ± 4.2
[2]; 3 mg/kg intravenously once a week, day 9
  volume of tumor: 253.3 ± 7.9
[2]; 3 mg/kg intravenously once a week, day 12
  volume of tumor: 311.9 ± 2.3
[2]; 3 mg/kg intravenously once a week, day 15
  volume of tumor: 337.5 ± 11.0
[2]; 3 mg/kg intravenously once a week, day 18
  volume of tumor: 359.8 ± 15.6
[2]; 3 mg/kg intravenously once a week, day 21
  volume of tumor: 408.2 ± 19.0
[2]; 3 mg/kg intravenously once a week, day 24
  volume of tumor: 434.5 ± 18.3
[2]; 7 mg/kg intravenously
  tumor volume reduction compared to control group: about 64%
[2]; 7 mg/kg intravenously once a week, day 0
  volume of tumor: 129.1 ± 3.8
[2]; 7 mg/kg intravenously once a week, day 3
  volume of tumor: 166.9 ± 7.4
[2]; 7 mg/kg intravenously once a week, day 6
  volume of tumor: 190.0 ± 6.3
[2]; 7 mg/kg intravenously once a week, day 9
  volume of tumor: 205.6 ± 11.4
[2]; 7 mg/kg intravenously once a week, day 12
  volume of tumor: 235.6 ± 7.1
[2]; 7 mg/kg intravenously once a week, day 15
  volume of tumor: 267.3 ± 9.4
[2]; 7 mg/kg intravenously once a week, day 18
  volume of tumor: 288.1 ± 6.2
[2]; 7 mg/kg intravenously once a week, day 21
  volume of tumor: 300.2 ± 15.4
[2]; 7 mg/kg intravenously once a week, day 24
  volume of tumor: 310.1 ± 18.2
[2]; 14 mg/kg intravenously
  tumor volume reduction compared to control group: about 69%
[2]; 14 mg/kg intravenously once a week, day 0
  volume of tumor: 127.8 ± 2.4
[2]; 14 mg/kg intravenously once a week, day 3
  volume of tumor: 156.8 ± 4.7
[2]; 14 mg/kg intravenously once a week, day 6
  volume of tumor: 180.6 ± 5.0
[2]; 14 mg/kg intravenously once a week, day 9
  volume of tumor: 202.9 ± 3.8
[2]; 14 mg/kg intravenously once a week, day 12
  volume of tumor: 210.6 ± 5.1
[2]; 14 mg/kg intravenously once a week, day 15
  volume of tumor: 234.7 ± 17.8
[2]; 14 mg/kg intravenously once a week, day 18
  volume of tumor: 249.4 ± 15.3
[2]; 14 mg/kg intravenously once a week, day 21
  volume of tumor: 264.8 ± 12.9
[2]; 14 mg/kg intravenously once a week, day 24
  volume of tumor: 268.7 ± 8.7
[3]; FIG. 12
  volume of tumor: cannot be reduced significantly
[3]; FIG. 13
  volume of tumor: cannot be reduced significantly
A549 lung cancer cells; 10/20/40 mg/kg intraperitoneally every other day, FIG. 14
  volume of tumor: cannot be reduced significantly
A549 lung cancer cells; 10/20/40 mg/kg intraperitoneally, FIG. 15a
  weight of tumor: cannot be reduced significantly
A549 lung cancer cells; paraffin embedded tumor region, compared to vehicle, FIG. 15b
  apoptosis in tumor (TUNEL assay): induces the apoptosis
HL-60(TB)
  Growth percent: 3.67%
[4]
  IC50: > 3000 nM
[5]
  IC50: < 1000 nM
[6]
  viability of cells: efficiently decreases the viability
[7]
  tumor growth: dose-dependently suppresses
[8]; 10 mg/kg and 40 mg/kg, FIG. 8
  reduction of tumor volume: significantly observed
[8]; 10 mg/kg intraperitoneally twice a week
  tumor volume reduction compared to control group: about 54%
[8]; 40 mg/kg intraperitoneally twice a week
  tumor volume reduction compared to control group: about 45%
[8]; 10/40 mg/kg
  weight of mouse compared to control group: changed significantly
